Source: patent US20230107642A1 (Erasca, Inc., priority 2020, published 2023)

Target: T1, Cys12 of the KRAS 4B G12C protein (Homo sapiens, UniProt P01116, G12C)
T1 construct: This protein contained 188 amino acids in total, including an N-terminal 6-Histidine tag; made in house; host or cells: E. coli BL21
Assay: In vitro covalent adduct formation (CAF) assay, LC-MS intact mass
Format: binding
Details: for % CAF 10 uM @ 60 min: 10 uM compound; for CAF (% after 1 hour): 10 μM compound
Method in brief: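 GDP-loaded (>95%) His-TEV-tagged KRAS 4B G12C (residues 1–169), 5 μM in TBS pH 7.4, incubated with 10 μM compound (4% DMSO) at 22° C for one hour. Intact-protein LC-MS gave free:adduct ratios, reported as percent protein modified; duplicate runs.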

% CAF 10 uM @ 60 min (60 min) [%]	CAF (% after 1 hour) [%]	Structure (SMILES)	further results
99.6		C=CC(=O)N1CCN(c2nc(=O)n3c4c(c(-c5ccc(F)cc5F)c(C(F)(F)F)cc24)SC[C@@H]3CN2CCN(CC)CC2)CC1 (atropisomer, axis not shown) [Example 1318, (3S,10R)-7-(4-acryloylpiperazin-1-yl)-10-(2,4-difluorophenyl)-3-((4-ethylpiperazin-1-yl)methyl)-9-(trifluoromethyl)-2,3-dihydro-5H-[1,4]thiazino[2,3,4-ij]quinazolin-5-one]	
	96	C=CC(=O)N1[C@H](C)CN(c2nc(=O)n3c4c(c(-c5ccc(F)cc5)c(C(F)(F)F)cc24)SC[C@@H](NS(C)(=O)=O)C3)C[C@@H]1C [Example 1224, N—((S)-8-((3S,5R)-4-Acryloyl-3,5-dimethylpiperazin-1-yl)-11-(4-fluorophenyl)-6-oxo-10-(trifluoromethyl)-3,4-dihydro-2H,6H-[1,4]thiazepino[2,3,4-ij]quinazolin-3-yl)methanesulfonamide]	
	70	C=CC(=O)N1[C@H](C)CN(c2nc(=O)n3c4c(c(-c5nc(N)c(F)cc5F)c(C(F)(F)F)cc24)SC[C@@H](OC)C3)C[C@@H]1C [Example 1242, (3S)-8-((3S,5R)-4-acryloyl-3,5-dimethylpiperazin-1-yl)-11-(6-amino-3,5-difluoropyridin-2-yl)-3-methoxy-10-(trifluoromethyl)-3,4-dihydro-2H,6H-[1,4]thiazepino[2,3,4-ij]quinazolin-6-one]	
		C=CC(=O)N1[C@H](C)CN(c2nc(=O)n3c4c(c(-c5ccc(F)c(Cl)c5)c(C(F)(F)F)cc24)SC[C@@H](OCCOC)C3)C[C@@H]1C [Example 1029, (S)-8-((3S,5R)-4-acryloyl-3,5-dimethylpiperazin-1-yl)-11-(3-chloro-4-fluorophenyl)-3-(2-methoxyethoxy)-10-(trifluoromethyl)-3,4-dihydro-2H,6H-[1,4]thiazepino[2,3,4-ij]quinazolin-6-one]	CAF (% binding after 60 min): 96%
		C=CC(=O)N1[C@H](C)CN(c2nc(=O)n3c4c(c(-c5cc(Cl)c(F)cc5F)c(C(F)(F)F)cc24)SC[C@@H](OCCN(C)C)C3)C[C@@H]1C [Example 1036, (3S)-8-((3S,5R)-4-acryloyl-3,5-dimethylpiperazin-1-yl)-11-(5-chloro-2,4-difluorophenyl)-3-(2-(dimethylamino)ethoxy)-10-(trifluoromethyl)-3,4-dihydro-2H,6H-[1,4]thiazepino[2,3,4-ij]quinazolin-6-one]	CAF (% binding after 60 min): 97%
88.4		C=CC(=O)N1C[C@H](C)N(c2nc(=O)n3c4c(c(-c5ccc(F)c(Cl)c5)c(C(F)(F)F)cc24)SC[C@@H]3CN2CCN(CC)CC2)C[C@H]1C [Example 1380, (S)-7-((2S,5R)-4-acryloyl-2,5-dimethylpiperazin-1-yl)-10-(3-chloro-4-fluorophenyl)-3-((4-ethylpiperazin-1-yl)methyl)-9-(trifluoromethyl)-2,3-dihydro-5H-[1,4]thiazino[2,3,4-ij]quinazolin-5-one]	
	95	C=CC(=O)N1[C@H](C)CN(c2nc(=O)n3c4c(c(-c5ccc(F)cc5)c(C(F)(F)F)cc24)SC[C@@H](OCC(N)=O)C3)C[C@@H]1C [Example 1233, 2-(((S)-8-((3S,5R)-4-acryloyl-3,5-dimethylpiperazin-1-yl)-11-(4-fluorophenyl)-6-oxo-10-(trifluoromethyl)-3,4-dihydro-2H,6H-[1,4]thiazepino[2,3,4-ij]quinazolin-3-yl)oxy)acetamide]	
		C=CC(=O)N1[C@H](C)CN(c2nc(=O)n3c4c(c(-c5cc(Cl)c(F)cc5F)c(C(F)(F)F)cc24)SCC2(COC2)C3)C[C@@H]1C (atropisomer, axis not shown) [Example 1125, (S)-8′-((3S,5R)-4-acryloyl-3,5-dimethylpiperazin-1-yl)-11′-(5-chloro-2,4-difluorophenyl)-10′-(trifluoromethyl)-2′H,4′H,6′H-spiro[oxetane-3,3′-[1,4]thiazepino [2,3,4-ij]quinazolin]-6′-one]	% CAF 10 uM @ 60 min (60 min incubation): 92.1%
91.8		C=CC(=O)N1[C@H](C)CN(c2nc(=O)n3c4c(c(-c5ccc(F)cc5F)c(C(F)(F)F)cc24)SC[C@@H]3COCC)C[C@@H]1C [Example 1414, (3S)-7-((3S,5R)-4-acryloyl-3,5-dimethylpiperazin-1-yl)-10-(2,4-difluorophenyl)-3-(ethoxymethyl)-9-(trifluoromethyl)-2,3-dihydro-5H-[1,4]thiazino[2,3,4-ij]quinazolin-5-one]	
		C=CC(=O)N1CCN(c2nc(=O)n3c4c(c(-c5ccc(F)cc5F)c(C(F)(F)F)cc24)SCC2(COC2)C3)CC1 (atropisomer, axis not shown) [Example 1128, (S)-8′-(4-acryloylpiperazin-1-yl)-11′-(2,4-difluorophenyl)-10′-(trifluoromethyl)-2′H,4′H,6′H-spiro[oxetane-3,3′-[1,4]thiazepino [2,3,4-ij]quinazolin]-6′-one]	% CAF 10 uM @ 60 min (60 min incubation): 65.8%
46.8		C=CC(=O)N1[C@H](C)CN(c2nc(=O)n3c4c(c(-c5ccc(F)c6cnn(C)c56)c(C(F)(F)F)cc24)SC[C@@H]3COC)C[C@@H]1C (atropisomer, axis not shown) [Example 1366a, (3S,10S)-7-((3S,5R)-4-acryloyl-3,5-dimethylpiperazin-1-yl)-10-(4-fluoro-1-methyl-1H-indazol-7-yl)-3-(methoxymethyl)-9-(trifluoromethyl)-2,3-dihydro-5H-[1,4]thiazino[2,3,4-ij]quinazolin-5-one]	
	95	C=CC(=O)N1[C@H](C)CN(c2nc(=O)n3c4c(c(-c5ccc(F)cc5)c(C(F)(F)F)cc24)SC[C@@H](OCF)C3)C[C@@H]1C [Example 1217, (S)-8-((3S,5R)-4-acryloyl-3,5-dimethylpiperazin-1-yl)-3-(fluoromethoxy)-11-(4-fluorophenyl)-10-(trifluoromethyl)-3,4-dihydro-2H,6H-[1,4]thiazepino[2,3,4-ij]quinazolin-6-one]	
		C=CC(=O)N1[C@H](C)CN(c2nc(=O)n3c4c(c(-c5ccc(F)cc5)c(C(F)(F)F)cc24)SC[C@@H](N2CCOCC2)C3)C[C@@H]1C [Example 1134, (S)-8-((3S,5R)-4-acryloyl-3,5-dimethylpiperazin-1-yl)-11-(4-fluorophenyl)-3-morpholino-10-(trifluoromethyl)-3,4-dihydro-[1,4]thiazepino [2,3,4-ij]quinazolin-6(2H)-one]	% CAF 10 uM @ 60 min (60 min incubation): 76.8%
	96	[2H]C([2H])=C([2H])C(=O)N1[C@H](C)CN(c2nc(=O)n3c4c(c(-c5ccc(F)cc5)c(C(F)(F)F)cc24)SC[C@@H](OC)C3)C[C@@H]1C [Example 1228, (S)-8-((3S,5R)-4-(acryloyl-d3)-3,5-dimethylpiperazin-1-yl)-11-(4-fluorophenyl)-3-methoxy-10-(trifluoromethyl)-3,4-dihydro-2H,6H-[1,4]thiazepino[2,3,4-ij]quinazolin-6-one]	
96.5		C=CC(=O)N1[C@H](C)CN(c2nc(=O)n3c4c(c(-c5ccc(F)cc5)c(C(F)(F)F)cc24)SCC(COC)(COC)C3)C[C@@H]1C [Example 1409, 8-((3S,5R)-4-acryloyl-3,5-dimethylpiperazin-1-yl)-11-(4-fluorophenyl)-3,3-bis(methoxymethyl)-10-(trifluoromethyl)-3,4-dihydro-[1,4]thiazepino[2,3,4-ij]quinazolin-6(2H)-one]	
	95	C=CC(=O)N1[C@H](C)CN(c2nc(=O)n3c4c(c(-c5cc(C(F)(F)F)ns5)c(C(F)(F)F)cc24)SC[C@@H](OC)C3)C[C@@H]1C [Example 1215, (S)-8-((3S,5R)-4-acryloyl-3,5-dimethylpiperazin-1-yl)-3-methoxy-10-(trifluoromethyl)-11-(3-(trifluoromethyl)isothiazol-5-yl)-3,4-dihydro-2H,6H-[1,4]thiazepino[2,3,4-ij]quinazolin-6-one]	
69.1		C=CC(=O)N1[C@H](C)CN(c2nc(=O)n3c4c(c(-c5cccc6cnn(C)c56)c(C(F)(F)F)cc24)SC[C@@H]3CN2CCN(CC)CC2)C[C@@H]1C (atropisomer, axis not shown) [Example 1389, (3S,10S)-7-((3S,5R)-4-acryloyl-3,5-dimethylpiperazin-1-yl)-3-((4-ethylpiperazin-1-yl)methyl)-10-(1-methyl-1H-indazol-7-yl)-9-(trifluoromethyl)-2,3-dihydro-5H-[1,4]thiazino[2,3,4-ij]quinazolin-5-one]	
	49	C=CC(=O)N1CCN(c2nc(=O)n3c4c(c(-c5cc(Cl)c(F)cc5F)c(C(F)(F)F)cc24)SC[C@@H](OC)C3)[C@@H]2CSC[C@@H]21 [Example 1214, (3S)-8-((4aR,7aS)-4-acryloylhexahydrothieno[3,4-b]pyrazin-1(2H)-yl)-11-(5-chloro-2,4-difluorophenyl)-3-methoxy-10-(trifluoromethyl)-3,4-dihydro-2H,6H-[1,4]thiazepino[2,3,4-ij]quinazolin-6-one]	
	93	C=CC(=O)N1[C@H](C)CN(c2nc(=O)n3c4c(c(-c5ccc(F)cc5F)c(C(F)(F)F)cc24)SCCC3)C[C@@H]1C [Example 1227, 8-((3S,5R)-4-acryloyl-3,5-dimethylpiperazin-1-yl)-11-(2,4-difluorophenyl)-10-(trifluoromethyl)-3,4-dihydro-2H,6H-[1,4]thiazepino[2,3,4-ij]quinazolin-6-one]	

Structure (SMILES)	% CAF 10 uM @ 60 min (60 min) [%]	CAF (% after 1 hour) [%]	further results
C=CC(=O)N1C2COCC1CN(c1nc(=O)n3c4c(c(-c5cc(Cl)c(F)cc5F)c(C(F)(F)F)cc14)SC[C@@H](OC)C3)C2 [Example 1210, (3S)-8-(9-acryloyl-3-oxa-7,9-diazabicyclo[3.3.1]nonan-7-yl)-11-(5-chloro-2,4-difluorophenyl)-3-methoxy-10-(trifluoromethyl)-3,4-dihydro-2H,6H-[1,4]thiazepino[2,3,4-ij]quinazolin-6-one]		94	
